US10335411B2, “Administration of ubiquitin-activating enzyme inhibitor and radiation” (Millennium Pharmaceuticals, Inc., priority 2014, dated 2019)
Where “and” joins values, the source holds several entries; their conditions need not be identical. Identical values can stand only once.

Legend:
LU-01-0030 xenograft = LU-01-0030 xenograft model, first study, Compound 1 and radiation; assay type: in vivo, mice
Excerpt: The LU-01-0030 xenograft model is a human primary non-small cell lung cancer model. In the first study with the LU-01-0030 model, approximately nine week old female BALB/c nude (Shanghai Sino-British SIPPR/BK Laboratory Animal Co., LTD.) mice were implanted subcutaneously with approximate 30 mm^3 LU-01-0030 tumor slices in the right flank. When the mean tumor volume reached approximately 159 mm^3, the animals were randomized into 10 treatment groups (n=8/group).
Compound 1 [((1R,2R,3S,4R)-2,3-dihydroxy-4-(2-(3-(trifluoromethylthio) ? phenyl)pyrazolo[1,5-a]pyrimidin-7-ylamino)cyclopentyl)methyl sulfamate] is formulated in 10% HPbCD in sterile water and administered intravenously on a BIW (twice/week schedule; Monday and Thursday, i.e. days 0, 3, 7, 10, 14, 17) for 3 weeks in the HN-13-0014 and LU-01-0030 (first study) models. Compound 1 formulation was prepared weekly and stored at room temperature in the dark.
Beam-focused radiation was delivered using a either 1 or 2 Gray dosed on days 0, 1, 7, and 8 or on days 0, 3, 7, and 10 in the HN-13-0014 and LU-01-0030 (first study) models. A Rad Source RS-2000 X-ray irradiator was used for therapy (Rad Source). Before radiation, animals were anesthetized by i.p. injection using 1.0% sodium pentobarbital at 80 mg/kg (Vendor: Sigma). Focused radiation was applied to each mouse at 1 Gy/min.
Tumors were measured twice weekly using vernier calipers. Tumor volumes were calculated using the following formula: (0.5×[length×width^2]). Treatment groups and dosing/treatment schedules are indicated in Tables 1a, 2a, 3a, 4a, and 5a below. Tumor size and body weight are measured approximately twice a week for the duration of the study. Mice are euthanized when their tumor volume reached approximately 1000 mm^3. Tumor growth continued to be monitored after the dosing period in some studies. In Tables 1a, 2a, 3a, 4a, and 5a tumor volumes are shown for HN-13-0014 (day 21), LU-01-0030 (day 21), the second LU-01-0030 study (day 20), LU-01-0266 (day 20), ST-02-0004 (day 21) and FIN-13-0007 (day 24), respectively. Average tumor volume is reported as a function of time for selected groups of selected studies.
Measurements from day 0 to day 20, day 21 or day 24 are analyzed as specified in Tables below. All tumor volumes have a value of 1 added to them before log10 transformation. For each animal, the log tumor volume at day 0 is subtracted from the log tumor volume on the subsequent days. This difference vs. time is used to calculate an area under the curve (AUC) for each animal using the trapezoid rule. In instances when an animal in a treatment group is removed early from the study, the last observed tumor value is carried forward through all subsequent time points. The synergy score for the combination of agents A and B is defined as 100*(mean(AUCAB)−mean(AUCA)−mean(AUCB)+mean(AUCctl))/mean(AUCctl): where AUCAB, AUCA, AUCB, and AUCctl are the AUC values for animals in the combination group, the A group, the B group, and the control group, respectively. The standard error of the synergy score is computed based on the variation in the AUC values among the animals. […] If the P-value is above 0.05, then the combination is considered to be additive. If the P-value is below 0.05, and the synergy score is less than zero, then the combination is considered to be synergistic. If the P-value is below 0.05 and the synergy score was greater than zero, but the mean AUC for the combination was lower than the lowest mean AUC among the two single agent treatments, then the combination was sub-additive. If the P-value is below 0.05 and if the synergy score was greater than zero, and the mean AUC for the combination was greater than the mean AUC for at least one of the single agent treatments, then the combination was antagonistic.

HCT-116 cells = assay: In vitro colony formation assay; assay type: cell-based; conditions: after 10 days, replicate wells
Experimental: General Method: HCT-116 cells are grown in McCoy's 5A Medium supplemented with 10% fetal bovine serum. Cells are seeded (200/well) on a 12-well plate. The next day cells are treated with increasing concentrations of Compound 1 (in medium) and 2 hours later irradiated with 0, 2 or 4 gray. After an additional 6 hour, medium is replaced with and without (washout condition) Compound 1. After 10 days the number of colonies is counted and recorded. Radiator used is an X-ray irradiator (MBR-1520R-3, Hitachi Power Solutions Co., Ltd.).
Ten days following initiation of treatment, the number of HCT-116 colonies per well is counted using GelCount™ (Oxford Optronix Ltd.) and the raw data results are indicated in Table 6.

[1] = 6.25 mg/kg Compound 1 + 2 Gy Radiation D0, 1, 7, 8
[2] = 6.25 mg/kg Compound 1 + 2 Gy Radiation D0, 3, 7, 10
[3] = 15 mg/kg Compound 1 + 2 Gy Radiation D0, 1, 7, 8
[4] = 15 mg/kg Compound 1 + 2 Gy Radiation D0, 3, 7, 10

Q: With `NS(=O)(=O)OC[C@H]1C[C@@H](Nc2ccnc3cc(-c4cccc(SC(F)(F)F)c4)nn23)[C@H](O)[C@@H]1O` [Compound 1, ((1R,2R,3S,4R)-2,3-dihydroxy-4-(2-(3-(trifluoromethylthio)phenyl)pyrazolo[1,5-a]pyrimidin-7-ylamino)cyclopentyl)methyl sulfamate] as the compound, how does the Classification (LU-01-0030 xenograft; [1]) read?
A: Additive (If the P-value is above 0.05, then the combination is considered to be additive)

Q: What about the Synergy score (LU-01-0030 xenograft; [1]) of the same compound?
A: 5.4

Q: What about the Classification (LU-01-0030 xenograft; [2]) of the same compound?
A: Additive (If the P-value is above 0.05, then the combination is considered to be additive)

Q: And the Synergy score (LU-01-0030 xenograft; [2])?
A: −22.2

Q: What about the “Tumor Volume Day 21” value (LU-01-0030 xenograft; 6.25 mg/kg Compound 1 IV BIWx3 + 2 Gy Radiation Beam D 0, 1, 7, 8) of the same compound?
A: 101.9 mm^3

Q: What about the “Tumor Volume Day 21” value (LU-01-0030 xenograft; 6.25 mg/kg Compound 1 IV BIWx3 + 2 Gy Radiation Beam D 0, 3, 7, 10) of the same compound?
A: 106.3 mm^3

Q: And the “Tumor Volume Day 21” value (LU-01-0030 xenograft; 6.25 mg/kg Compound 1 IV BIWx3, single agent)?
A: 555.7 mm^3

Q: And the “anti-tumor activity compared to the vehicle control” value (LU-01-0030 xenograft; 6.25 mg/kg Compound 1 as a single agent)?
A: no anti-tumor activity

Q: What about the Classification (LU-01-0030 xenograft; [3]) of the same compound?
A: Synergy (If the P-value is below 0.05, and the synergy score is less than zero, then the combination is considered to be synergistic)

Q: And the Synergy score (LU-01-0030 xenograft; [3])?
A: −139.6

Q: What about the Classification (LU-01-0030 xenograft; [4]) of the same compound?
A: Synergy (If the P-value is below 0.05, and the synergy score is less than zero, then the combination is considered to be synergistic)

Q: What about the Synergy score (LU-01-0030 xenograft; [4]) of the same compound?
A: −165.9

Q: And the “Tumor Volume Day 21” value (LU-01-0030 xenograft; 15 mg/kg Compound 1 IV BIWx3 + 2 Gy Radiation Beam D 0, 1, 7, 8)?
A: 2.3 mm^3

Q: And the “Tumor Volume Day 21” value (LU-01-0030 xenograft; 15 mg/kg Compound 1 IV BIWx3 + 2 Gy Radiation Beam D 0, 3, 7, 10)?
A: 2.8 mm^3

Q: What about the “Tumor Volume Day 21” value (LU-01-0030 xenograft; 15 mg/kg Compound 1 IV BIWx3, single agent) of the same compound?
A: 151.3 mm^3

Q: And the “anti-tumor activity, single agent” value (LU-01-0030 xenograft; Compound 1 at 15 mg/kg as single agent)?
A: tumor stasis

Q: And the combination effect (LU-01-0030 xenograft; Compound 1 with 2 Gy radiation)?
A: additive-to-synergistic combination effect

Q: And the “Number of Colonies/well” value (HCT-116 cells; Washout No, Radiation 0 Gray, Compound 1 30 nM)?
A: 0

Q: What about the “Number of Colonies/well” value (HCT-116 cells; Washout No, Radiation 0 Gray, Compound 1 100 nM) of the same compound?
A: 0

Q: And the “Number of Colonies/well” value (HCT-116 cells; Washout No, Radiation 0 Gray, Compound 1 300 nM)?
A: 0

Q: What about the “Number of Colonies/well” value (HCT-116 cells; Washout No, Radiation 2 Gray, Compound 1 30 nM) of the same compound?
A: 0

Q: And the “Number of Colonies/well” value (HCT-116 cells; Washout No, Radiation 2 Gray, Compound 1 100 nM)?
A: 0

Q: And the “Number of Colonies/well” value (HCT-116 cells; Washout No, Radiation 2 Gray, Compound 1 300 nM)?
A: 0

Q: What about the “Number of Colonies/well” value (HCT-116 cells; Washout No, Radiation 4 Gray, Compound 1 30 nM) of the same compound?
A: 0

Q: What about the “Number of Colonies/well” value (HCT-116 cells; Washout No, Radiation 4 Gray, Compound 1 100 nM) of the same compound?
A: 0

Q: What about the “Number of Colonies/well” value (HCT-116 cells; Washout No, Radiation 4 Gray, Compound 1 300 nM) of the same compound?
A: 0

Q: And the “Number of Colonies/well” value (HCT-116 cells; Washout Yes, Radiation 0 Gray, Compound 1 30 nM)?
A: 20 (2×) and 26

Q: What about the “Number of Colonies/well” value (HCT-116 cells; Washout Yes, Radiation 0 Gray, Compound 1 100 nM) of the same compound?
A: 1 (2×) and 0

Q: And the “Number of Colonies/well” value (HCT-116 cells; Washout Yes, Radiation 0 Gray, Compound 1 300 nM)?
A: 0

Q: And the “Number of Colonies/well” value (HCT-116 cells; Washout Yes, Radiation 2 Gray, Compound 1 30 nM)?
A: 3 and 7 and 6

Q: And the “Number of Colonies/well” value (HCT-116 cells; Washout Yes, Radiation 2 Gray, Compound 1 100 nM)?
A: 0

Q: And the “Number of Colonies/well” value (HCT-116 cells; Washout Yes, Radiation 2 Gray, Compound 1 300 nM)?
A: 0

Q: And the “Number of Colonies/well” value (HCT-116 cells; Washout Yes, Radiation 4 Gray, Compound 1 30 nM)?
A: 1 (2×) and 4

Q: What about the “Number of Colonies/well” value (HCT-116 cells; Washout Yes, Radiation 4 Gray, Compound 1 100 nM) of the same compound?
A: 0 (2×) and 1

Q: And the “Number of Colonies/well” value (HCT-116 cells; Washout Yes, Radiation 4 Gray, Compound 1 300 nM)?
A: 0
